Patent publication US7566531B2, “Selective whole cell quartz crystal microbalance biosensors” (University of Massachusetts, priority 2003, dated 2009)

Tests used:
MCF-7 cells [1] = assay: conventional proliferation assays and apoptosis assays; assay type: cell-based, human
Protocol: (§1) To confirm that the changes in the QCM frequency and resistance are associated with changes in cell growth or apoptosis, conventional proliferation assays and apoptosis assays were conducted on MDA-MB-231 cells and MCF-7 cells treated with docetaxel or paclitaxel. […] For example, both drugs reduced the mitotic index of MCF-7 cells and eliminated that of MDA-MB-231.

MDA-MB-231 cells [2] = assay: as above; assay type: cell-based, human
Protocol: as §1

MCF-7 cells [3] = assay: whole cell QCM biosensor, Δf and ΔR after drug addition; assay type: cell-based, human; conditions: for QCM frequency decrease, Phase I / change in QCM resistance, Phase I: hour 0 to hour 6 post drug addition; for QCM frequency decrease, Phase I / change in QCM resistance, Phase I / QCM frequency increase, Phase II: 0.1 μM docetaxel, 10 μM paclitaxel; for QCM frequency increase, Phase II: hour 6 to hour 20 post drug addition
Protocol: (§2) Normal human mammary epithelial cells (HMEC), estrogen receptor-positive human breast cancer cells (MCF-7, a non-metastatic, malignant mammary epithelial cells), and estrogen receptor-negative metastatic human breast cancer cells (MDA-MB-231) were used for this study. These commercially available cells were cultured and harvested as recommended by the supplier, American Type Cell Cultures (ATCC). The cells were then seeded onto the chemically modified conducting surface of separate whole cell QCM biosensors and were allowed to reach the steady state. In general, it takes about 12-14 hours (hours) or less (as quick as within 6 hours) for the cells to reach the steady state on the new selective whole cell QCM biosensors. In contrast, on a QCM biosensor without the selective substrate, it takes about 20-24 hours for the cells to reach steady state. Cell number-dependent characteristic Δf and ΔR shift values of these cells were recorded as described in Marx et al., Biosens. Bioelectron., 16(9-12):773-82, 2001.
(§3) MCF-7 cells, which are resistant to paclitaxel treatment and MDA-MB-231 cells, which are sensitive to paclitaxel treatment were seeded onto two separate whole cell QCM biosensors and allowed to reach steady state as described above.
(§4) Paclitaxel (Sigma Chemical Company) was dissolved in dimethylsulfoxide to make a stock solution. The stock solution was properly diluted in culture media before being added to the cells on the QCM biosensors, so that the final concentration was 10 μM. […] After adding paclitaxel, the Δf and ΔR of the QCMs were monitored and recorded hourly.
(§5) MCF-7 cells and MDA-MB-231 cells were cultured and seeded onto QCM biosensors according to the method described above. The cells were then incubated with 0.1 μM docetaxel (Aventis Pharmaceuticals) and 10 μM paclitaxel. The changes in frequencies and resistances of the QCMs were monitored for 24 hours.

MDA-MB-231 cells [4] = assay: as above; assay type: cell-based, human; conditions: for QCM frequency decrease, Phase I / increase in QCM resistance, Phase I: hour 0 to hour 6 post drug addition; for QCM frequency decrease, Phase I / increase in QCM resistance, Phase I / QCM frequency increase, Phase II: 0.1 μM docetaxel, 10 μM paclitaxel; for QCM frequency increase, Phase II: hour 6 to hour 20 post drug addition
Protocol: as §2, §3, §4, §5

MCF-7 cells [5] = assay: apoptosis assay (DAPI staining; Apoptotic Index and Mitotic Index); assay type: cell-based, human
Protocol: (§6) Duplicate MCF-7 or MDA-MB-231 cells that were treated with the same dose of paclitaxel were analyzed using an apoptosis assay as described in Warren M. et al., Free Radic Biol Med. 29:537-47, 2000. Briefly, cells were fixed sequentially in 50% and 100% methanol for 5 minutes each. The cells were then stained with 4,6,diamidino-2-phenylindole (DAPI; Sigma) at a final concentration of 0.5 mg/ml at 37° C. for 30 minutes. After being air-dried and mounted with 1:3 PBS-glycerol, chromatin distribution in the cells were visualized by fluorescence. […] Apoptosis was scored as the percentage of apoptotic cells in relation to the total cell number (i.e., Apoptotic Index), corrected for baseline apoptosis. Mitotic cells were also identified and mitosis was scored as the percentage of the mitotic cells in relation to all of the cells (i.e., Mitotic Index).

MDA-MB-231 cells [6] = assay: as above; assay type: cell-based, human
Protocol: as §6

MCF-7 cells [7] = assay: as above; assay type: cell-based, human; conditions: 10 μM
[8] = test system: normal capillary endothelial cells; assay: cell removal from QCM by PBS-EGTA; assay type: cell-based
Protocol: The above-described QCM biosensor was used to study cells and the ECM made by the cells. 50,000 normal capillary endothelial cells were seeded onto the QCM and maintained in DMEM-10% Calf Serum for 3-4 days to synthesize ECM. The cells were then removed by incubating in PBS-0.25 mM EGTA three times for 6 hours according to the method described in Paige et al., Cell Dev. Biol., 27A:151-157, 1991. During this process, the frequency and resistance of the QCM were recorded and plotted.
To corroborate this discovery, immunocytochemistry was carried out to examine actin stress fiber in the cells using standard techniques.

[9] = 10 μM, 8 hours post paclitaxel addition
[10] = 10 μM, 50 hours post paclitaxel addition
[11] = 10 μM, between 8 and 50 hours post addition
[12] = PBS-0.25 mM EGTA, EGTA 1 at hour 112 after cell seeding

## CC(=O)O[C@@]12CO[C@@H]1C[C@H](O)[C@@]1(C)C(=O)[C@H](O)C3=C(C)[C@@H](OC(=O)[C@H](O)[C@@H](NC(=O)OC(C)(C)C)c4ccccc4)C[C@@](O)([C@@H](OC(=O)c4ccccc4)[C@H]21)C3(C)C [docetaxel]
MCF-7 cells [1]
  apoptosis: induced apoptosis
  cell growth: inhibited cell growth
  mitotic index: reduced
MDA-MB-231 cells [2]
  apoptosis: induced apoptosis
  cell growth: inhibited cell growth
  mitotic index: eliminated
MCF-7 cells [3]
  QCM frequency decrease, Phase I: −50 Hz
  change in QCM resistance, Phase I: little change
  QCM frequency increase, Phase II: 10-20 Hz
MDA-MB-231 cells [4]
  QCM frequency decrease, Phase I: −70 Hz
  increase in QCM resistance, Phase I: 20 Ohm
  QCM frequency increase, Phase II: 98 Hz

## CC(=O)O[C@H]1C(=O)[C@@]2(C)[C@H]([C@H](OC(=O)c3ccccc3)[C@]3(O)C[C@H](OC(=O)[C@H](O)[C@@H](NC(=O)c4ccccc4)c4ccccc4)C(C)=C1C3(C)C)[C@]1(OC(C)=O)CO[C@@H]1C[C@@H]2O [paclitaxel]
MCF-7 cells [5]; 3 hours, 10 uM
  Apoptotic Index (AI): <1%
  Mitotic Index (MI): 1%
MCF-7 cells [5]; 6 hours, 0.1 uM
  Apoptotic Index (AI): 1%
  Mitotic Index (MI): 1%
MCF-7 cells [5]; 6 hours, 1.0 uM
  Apoptotic Index (AI): 4.5%
  Mitotic Index (MI): 0%
MCF-7 cells [5]; 6 hours, 10 uM
  Apoptotic Index (AI): 11%
  Mitotic Index (MI): 0%
MCF-7 cells [5]; 12 hours, 10 uM
  Apoptotic Index (AI): 25%
  Mitotic Index (MI): 0%
MCF-7 cells [5]; 24 hours, 10 uM
  Apoptotic Index (AI): 33%
  Mitotic Index (MI): 0%
MDA-MB-231 cells [6]; 10 μM
  start of obvious cell shape change and eventually apoptosis, time post paclitaxel addition: 8 h
MDA-MB-231 cells [6]; 3 hours, 10 uM
  Apoptotic Index (AI): <1%
  Mitotic Index (MI): 0%
MDA-MB-231 cells [6]; 6 hours, 0.1 uM
  Apoptotic Index (AI): 1%
  Mitotic Index (MI): 0%
MDA-MB-231 cells [6]; 6 hours, 1.0 uM
  Apoptotic Index (AI): 8.5%
  Mitotic Index (MI): 0%
MDA-MB-231 cells [6]; 6 hours, 10 uM
  Apoptotic Index (AI): 10%
  Mitotic Index (MI): 0%
MDA-MB-231 cells [6]; 12 hours, 10 uM
  Apoptotic Index (AI): 40%
  Mitotic Index (MI): 0%
MDA-MB-231 cells [6]; 24 hours, 10 uM
  Apoptotic Index (AI): 84%
  Mitotic Index (MI): 0%
MCF-7 cells [1]
  apoptosis: induced apoptosis
  cell growth: inhibited cell growth
  mitotic index: reduced
MDA-MB-231 cells [2]
  apoptosis: induced apoptosis
  cell growth: inhibited cell growth
  mitotic index: eliminated
MCF-7 cells [3]; 10 μM
  ΔR decrease immediately after adding the drug: 50 Ω
MCF-7 cells [3]; [9]
  ΔR: about 40 Ω
  Δf: −300 Hz
MCF-7 cells [3]; [10]
  ΔR: about 20 Ω
  Δf: −260 Hz
MCF-7 cells [3]; [11]
  magnitude of change of ΔR: 20 Ω
  magnitude of change of Δf: 40 Hz
MCF-7 cells [3]
  QCM frequency decrease, Phase I: −20 Hz
  change in QCM resistance, Phase I: little change
  QCM frequency increase, Phase II: 50 Hz
MDA-MB-231 cells [4]; 10 μM
  ΔR increase immediately after adding the drug: about 70 Ω
MDA-MB-231 cells [4]; [9]
  ΔR: about 80 Ω
  Δf: −250 Hz
MDA-MB-231 cells [4]; [10]
  ΔR: about 40 Ω
  Δf: −110 Hz
MDA-MB-231 cells [4]; [11]
  magnitude of change of ΔR: 40 Ω
  magnitude of change of Δf: 140 Hz
MDA-MB-231 cells [4]
  QCM frequency decrease, Phase I: −20 Hz
  increase in QCM resistance, Phase I: little change
  QCM frequency increase, Phase II: 60 Hz
MCF-7 cells [7]
  start of obvious cell shape change and eventually apoptosis, time post paclitaxel addition: 8 h

## O=C(O)CN(CCOCCOCCN(CC(=O)O)CC(=O)O)CC(=O)O [EGTA]
[8]; [12]
  ΔR on initial exposure: large decrease
  Δf on initial exposure: large increase
[8]; PBS-0.25 mM EGTA, first exposure
  time for frequency and resistance to return to stable values: ≤ 2 h
[8]; minute 120 after exposing to EGTA
  cell detachment from the surface: most cells had detached
